Each structure is given as a SMILES string. Activity calls are given as the source filed them.

In data set [1] the test system is Candida albicans. As to the kind of experiment: Antifungal activity against Candida albicans SC5314 infected in Balb/C mouse candidiasis model assessed as decrease in skin fungal burden by measuring fold change at 0.5% administered topically and measured after 72 hrs. It is filed as functional.
For data set [2], the system named is Nakaseomyces glabratus. Kind of data set: Antifungal activity against Candida glabrata CG2 assessed as inhibition of hyphae formation at 1 ug/ml measured after 6 hrs by microscopy based analysis. It is filed as functional, organism-based. The following applies: dose 1.0 µg/ml.
Data set [3] relates to Candida albicans. Kind of data set: Upregulation of PDE2 gene level in Candida albicans SC5314 at 1 ug/ml incubated for 6 hrs by qPCR analysis. In kind it is functional. The following applies: dose 1.0 µg/ml. For orientation: Real-time PCR tracks product formation cycle by cycle.
Data set [4] relates to Candida albicans. As to the kind of experiment: Antifungal activity against Candida albicans SC5314 assessed as inhibition of fungal growth incubated for 24 hrs by CLSI protocol based broth microdilution method. In kind it is functional. (Broth dilution looks for growth in wells or tubes with falling amounts of substance.)
Data set [5] can be described thus: Hemolytic activity in mouse RBC assessed as hemolysis at 2 to 32 ug/ml incubated for 60 mins by absorbance based analysis relative to control. In kind it is toxicity, cell-based, Erythrocyte. The following applies: mouse red blood cells, at 2 to 32 µg/mL, dose 2-32 µg/ml, read-out: Activity.
The test system of data set [6] is Candida albicans. Kind of data set: Downregulation of ALS3 expression in Candida albicans SC5314 at 1 ug/ml incubated for 6 hrs by qPCR analysis. In kind it is functional. The following applies: dose 1.0 µg/ml.
Data set [7] relates to Candida albicans. As to the kind of experiment: Antifungal activity against Candida albicans SC5314 assessed as inhibition of hyphae growth measured after 30 passages. In kind it is functional, organism-based.
Data set [8] has as its system Candida albicans. As to the kind of experiment: Antifungal activity against Candida albicans SC5314 infected in Balb/C mouse candidiasis model assessed as appearance of inflammatory infiltrates at 0.5 % administered topically and measured after 72 hrs in presence of terbinafine by H and E staining based analysis. In kind it is functional, organism-based.
Data set [9] concerns Candida albicans. Kind of data set: Antifungal activity against Candida albicans SC5314 assessed as inhibition of morphological transition at 0.5 ug/ml measured after 5 days cultured under YPD embedded agar medium by microscopy based analysis relative to control. It is filed as functional. Further details: scale not given: the % may be the effect or the level left. As to conditions: dose 0.5 µg/ml; time 5 day.

In data set [10] the test system is Candida albicans. Kind of data set: Antifungal activity against Candida albicans SC5314 infected in Balb/C mouse candidiasis model assessed as appearance of inflammatory infiltrates at 0.5 % administered topically and measured after 72 hrs in presence of tridemorph by H and E staining based analysis. In kind it is functional, organism-based.
Data set [11] deals with Nakaseomyces glabratus. Kind of data set: Antifungal activity against Candida glabrata CG2 assessed as inhibition of fungal growth incubated for 24 hrs by CLSI protocol based broth microdilution method. It is filed as functional.
The test system of data set [12] is Candida albicans. Kind of data set: Downregulation of HWP1 expression in Candida albicans SC5314 at 1 ug/ml incubated for 6 hrs by qPCR analysis. It is filed as functional. The following applies: dose 1.0 µg/ml.
Data set [13] deals with Candida albicans. Kind of data set: Upregulation of NRG1 expression in Candida albicans SC5314 at 1 ug/ml incubated for 6 hrs by qPCR analysis. It is filed as functional. As to conditions: dose 1.0 µg/ml.
Data set [14] deals with Candida albicans. As to the kind of experiment: Antifungal activity against Candida albicans SC5314 assessed as inhibition of morphological transition at 0.5 ug/ml measured after 5 days cultured under solid spider agar medium by microscopy based analysis relative to control. In kind it is functional. Set-up: scale not given: the % may be the effect or the level left. As to conditions: dose 0.5 µg/ml; time 5 day.

Data set [15] can be described thus: Cytotoxicity against human BEAS-2B cells incubated for 48 hrs by CCK-8 method. It is filed as toxicity, cell-based. A general note: Tetrazolium dyes change colour on reduction, which living cells bring about.
The test system of data set [16] is Candida albicans. As to the kind of experiment: Inhibition of cell adhesion in Candida albicans SC5314 to human HGE cells measured after 90 mins by fluorescence microscopy based analysis. As to conditions: dose 0.5-2 µg/ml. In kind it is functional.
The target of data set [17] is T1, Sterol 24-C-methyltransferase (Candida albicans (strain SC5314 / ATCC MYA-2876) (Yeast)) (UniProt O74198).
T1 sequence (whole entry): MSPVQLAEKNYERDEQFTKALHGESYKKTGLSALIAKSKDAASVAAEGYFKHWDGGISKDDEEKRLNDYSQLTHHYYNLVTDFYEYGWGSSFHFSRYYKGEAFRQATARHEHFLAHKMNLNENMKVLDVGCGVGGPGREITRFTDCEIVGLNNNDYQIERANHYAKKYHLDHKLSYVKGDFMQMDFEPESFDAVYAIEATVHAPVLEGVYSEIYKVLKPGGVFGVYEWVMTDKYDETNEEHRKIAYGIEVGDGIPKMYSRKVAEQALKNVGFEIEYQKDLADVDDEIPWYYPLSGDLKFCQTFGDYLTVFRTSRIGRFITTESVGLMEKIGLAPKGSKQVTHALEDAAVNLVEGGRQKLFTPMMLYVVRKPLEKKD
Kind of data set: Thermal stabilization of recombinant Candida albicans SC5314 Erg6 transfected in Escherichia coli BL21 (DE3) at 0.5 ug/ml incubated for 30 mins at 43 to 57 degreeC by Western blot analysis. As to conditions: dose 0.5 µg/ml.

The next data set relates to Candida parapsilosis. Kind of data set: Antifungal activity against Candida parapsilosis CP1 assessed as effect on structure at 1 ug/ml measured after 6 hrs by microscopy based analysis. In kind it is functional, organism-based. The following applies: dose 1.0 µg/ml.
The test system of data set [18] is Candida albicans. As to the kind of experiment: Synergistic antifungal activity against Candida albicans SC5314 assessed as inhibition of fungal growth incubated for 24 hrs in presence of terbinafine by broth microdilution checkerboard assay. In kind it is functional.
The test system of data set [19] is Candida albicans. Kind of data set: Synergistic antifungal activity against Candida albicans SC5314 assessed as fractional inhibitory concentration index incubated for 24 hrs in presence of tridemorph by broth microdilution checkerboard assay. In kind it is functional.

As to `Cc1c(-n2c(-c3ccc4ccccc4c3)cs/c2=N\c2ccccc2)c(=O)n(-c2ccccc2)n1C`, in the data set on Candida albicans [1], the “fold change (FC)” value was 2.86. Further, the result in the data set on Nakaseomyces glabratus [2], in the data set with Candida albicans [3], with Candida albicans [6], in the data set on Candida albicans [7], in the data set on Candida albicans [12] and in the data set on Candida albicans [13] was Active. Also, in data set [17], the result was Active. Besides, the MIC80 – broadly, the lowest concentration that inhibits either 80% of growth or 80% of the strains tested, depending on the study – with Candida albicans [4] is greater than 128 µg/mL; in the data set with Candida albicans [18] it was 1 µg/mL. Also, the hemolysis at 1 h in data set [5] was less than 1%. For the same compound, the result in the data set on Candida albicans [8], in the data set on Candida albicans [10] and with Candida parapsilosis was inactive. Further, the Activity in the data set with Candida albicans [9] and in the data set with Candida albicans [14] was 100% throughout. In addition, the MIC – broadly, the smallest concentration in the dilution series that meets the test's criterion for growth inhibition – in the data set on Nakaseomyces glabratus [11] was greater than 128 µg/mL. For the same compound, in data set [15], the EC50 (in general, the concentration that produces a half-maximal response) at 48 h is greater than 50 µg/mL. For the same compound, in the data set on Candida albicans [16], the inhibition result is “Dose-Dependent Effect”. Also, the “fractional inhibitory concentration index (FICI)” value in the data set with Candida albicans [19] is less than 0.1.

(Values after ChEMBL document CHEMBL5512671, “Structure-Based Optimization of Novel Sterol 24-C-Methyltransferase Inhibitors for the Treatment of Candida albicans Infections” (J Med Chem, 2024).)
